The results in this text go back to patent EP0278940A2, “Hepatitis B virus surface antigens and hybrid antigens containing them” (SMITHKLINE BIOLOGICALS S.A., priority 1987, dated 1988).

The experiment concerns synthetic preS2 peptide. Nature of the experiment: Immunogenicity in mice: anti-preS2 antibodies by solid phase RIA on synthetic preS2 peptide. The format is in vivo, mice: Balb/c (H₂-d) and NMRl (H₂-Q). The conditions noted are these: Balb/c and NMRl mice, I.P., one month, pooled sera. How it is done:
The immunogenicity of particles prepared from extracts of cells containing pRIT12660 (Example 16) was studied in 2 strains of mice: Balb/c (H₂-d) and NMRl (H₂-Q). The particles were absorbed on Al(OH)₃ before injection and the mice (5 mice/group) were injected intraperitoneally (I.P.) with 0.3 µg of RIA reacting material. One month after the immunization, the mice were bled and the sera from the mice of the same group were pooled. The titer of anti-S antibodies was determined in the pools by using the AUSAB kit (Abbott Labs) and the WHO reference. The titers were converted in mIU/ml by using the Hollinger formula (Hollinger et al., in Szmuness et al., eds. Viral Hepatitis, Philadelphia : Franklin Institute Press, 451-466, 1982). The anti-preS2 antibodies were determined using a solid phase assay (RIA) in which the synthetic preS2 peptide given in Example 23, is absorbed on plastic and bound antibodies were detected with a goat anti-mouse IgG labelled with ¹²⁵I. […] PreS determinants enhance the response to the S determinants. This enhancing effect is not shown if the preS2 synthetic peptide is injected together with particles which lack the preS2.

In the case of `CSCC[C@H](N)C(=O)N[C@@H](CCC(=O)O)C(=O)N[C@@H](Cc1c[nH]c2ccccc12)C(=O)N[C@@H](CC(N)=O)C(=O)N[C@@H](CO)C(=O)N[C@H](C(=O)N[C@@H](C)C(=O)N[C@@H](Cc1ccccc1)C(=O)N[C@@H](Cc1c[nH]cn1)C(=O)N[C@@H](CCC(N)=O)C(=O)N[C@@H](C)C(=O)N[C@@H](CC(C)C)C(=O)N[C@@H](CCC(N)=O)C(=O)N[C@@H](CC(=O)O)C(=O)N1CCC[C@H]1C(=O)N[C@@H](CCCNC(=N)N)C(=O)N[C@H](C(=O)N[C@@H](CCCNC(=N)N)C(=O)NCC(=O)N[C@@H](CC(C)C)C(=O)N[C@@H](Cc1ccc(O)cc1)C(=O)N[C@@H](CC(C)C)C(=O)N1CCC[C@H]1C(=O)N[C@@H](C)C(=O)NCC(=O)N[C@@H](CS)C(=O)O)C(C)C)[C@@H](C)O` [preS2 synthetic peptide], the “induction of anti-preS2 peptide antibodies” value was “unable to elicit anti-preS2 antibodies”.
